Data published in patent publication US9108045B2, “Method and apparatus for optical inhibition of photodynamic therapy” (The General Hospital Corporation, priority 2007, dated 2015).

Assays:
[1] = system: skin; experiment: Clinical suppression of superficial porphyrin synthesis by inhibiting light during ALA metabolism; type: in vivo
Text: In further embodiments, superficial porphyrin accumulation resulting from topical application of ALA may be suppressed by blue light exposure during ALA metabolism. For example, a topical solution of 20% ALA can be applied to a region of skin. The region of skin can then be exposed to low level irradiance 410 nm blue light to inhibit accumulation of porphyrins. This light can be applied during the period of ALA metabolism, e.g., immediately after the application of the topical ALA solution or later in time. […] Here, clinical suppression refers to a diminished response of the tissue to treatment radiation in subsequent PDT procedures.

[2] = system: skin; experiment: Example 1: cooling and heating plates applied to skin after topical and injected ALA; porphyrin synthesis and skin photosensitization; type: in vivo
Method: When a skin surface is cooled, there can be a gradient of temperature such that ALA metabolism might favor the warm dermis. To examine this effect, cooling and heating plates were applied to skin after topical and injected ALA administration, and porphyrin synthesis and skin photosensitization were then determined.

[3] = system: moderate to severe inflammatory acne; type: in vivo, human; details: both sides of the face
Method: A 20% ALA solution (Dusa Pharmaceutics) was applied topically to the patient's face. The right side of the patient's face was covered with saran wrap and aluminum foil for 3 hours of incubation (to provide a conventional PDT treatment), while blue light at very low intensity (an inhibiting radiation) was applied to the left side of the patient's face for 3 hours (using a Clearlight at […], provided about 2 meters from the patient).
After the incubation period, both sides of the face were irradiated with red light treatment radiation (635 nm wavelength, at about 180 J/cm^2, using an Aktilite). During the red light irradiation, the patient indicated a subjective pain score of about 9-10 (on a 0-10 scale, with 0 being no pain, 5 being moderate pain, and 10 being maximum pain) on the right side of their face receiving conventional PDT treatment.

[4] = system: human skin; experiment: Example 1: suppression of epidermal porphyrin accumulation by blue light exposure during ALA metabolism; type: in vivo; details: 20% topical ALA, 410-nm blue light 1.47 mW/cm^2 during 2 hours incubation, then 632-nm light 100 J/cm^2
Method: Suppression of epidermal porphyrin accumulation by blue light exposure during ALA metabolism, in accordance with exemplary embodiments of the present invention, was tested in humans. With reference to FIG. 6, a 20% topical ALA solution was applied to human skin 610, covered with aluminum foil 620, while only some uncovered areas received 410-nm blue light (1.47 mW/cm^2) 630 during the incubation time. A fluorescent photo 640 was taken after 2 hours of incubation, and 632-nm light (100 J/cm^2) was then applied to all areas 650. A clinical photograph 660 was taken after PDT treatment.

[5] = system: skin of a pig; experiment: Example 2: blue light through attenuating films during ALA incubation; porphyrin accumulation by fluorescence; type: in vivo; details: 20% topical ALA, 410 nm blue light 2.6 mW/cm^2 for 3 hours through attenuating films, 100% to 17% transmittance (0.4 mW/cm^2)
Method: In accordance with embodiments of the present invention, 20% topical ALA was applied to the skin of a pig. Nine different areas were divided and different attenuating films were placed over the skin during the entire incubation time (or the metabolism period). The attenuating films reduced the light transmittance allowing a range of irradiance varying from 100%, 56%, 44%, 35%, 26%, 21%, 19% to 17% of light during the incubation period.
Immediately after the drug application, a 410 nm blue light was irradiated through all the experiment sites at an irradiance of 2.6 mW/cm^2 for 3 hours. During this period, porphyrin accumulation was measured in each test area by digital fluorescence photography (˜410 nm excitation, >600 nm emission), and microscopically determined by fluorescence microscopy of skin biopsies (8 mm diameter) obtained prior to light exposure. After the 3 hours of incubation, red light at 635 nm exposure with 200 J/cm^2 fluence was delivered at 100 mW/cm^2 irradiance, provided by an LED array source (Omnilux, PhotoTherapeutics LTD, Cheshire UK). Measurements and biopsies were repeated after 24 hours, prior to euthanasia.

[6] = system: anterior ear skin of swine; type: in vivo
Method: Studies of ALA metabolism and porphyrin accumulation rates have been performed in anterior ear skin of swine. Such tissue bears many similarities to facial skin tissue in humans with respect to size and location of relevant tissue layers and target regions such as hair follicles and sebaceous glands. Topical 20% ALA in a water/alcohol solution was applied to the skin tissue, and formation of photosensitizers was analyzed based on quantitative fluorescence analysis of porphyrins formed from the ALA.
Overall porphyrin fluorescence was not observed until about 30-45 minutes after application of the ALA solution, although epidermis fluorescence measurement was statistically significant after only 15 minutes following the ALA application. Between about 30 and 120 minutes following application of the ALA solution, epidermis, hair follicles, and sebaceous glands became progressively more fluorescent. […] Fluorescence in all sites reached a maximum intensity between about 75 and 180 minutes after application of the ALA solution.

- time after application at which epidermis fluorescence measurement was statistically significant ([6]; swine): 15 min
- time after application at which fluorescence reached maximum intensity ([6]; swine, in vivo): 75 to 180 min
- time after application until overall porphyrin fluorescence was observed ([6]; swine, in vivo): 30 to 45 min
- time at which eccrine gland fluorescence was first detected ([6]; swine, in vivo): about 30 minutes
- time at which sebaceous glands started to show fluorescence ([6]; swine, in vivo): 45 to 75 min
SMILES: NCC(=O)CCC(=O)O [ALA, 5-aminolevulinic acid]
- clinical suppression of superficial porphyrin synthesis ([1]; red light 633 nm, irradiance about 14-40 mW/cm^2): some clinical suppression
- clinical suppression of epidermal and/or superficial porphyrin synthesis ([1]; topical 20% ALA, blue light 415 nm, irradiance about 10-30 mW/cm^2 during ALA metabolism): almost complete clinical suppression
- suppression of photosensitizer formation ([1]; topical 20% ALA, blue light, irradiance about 60 μW/cm^2 to 3 mW/cm^2): Some suppression
- clinical suppression of photosensitizer formation ([1]; topical 20% ALA, blue light, irradiance less than about 30 μW/cm^2): No clinical suppression
- conversion of epidermal ALA to porphyrins ([2]; skin cooling to less than about 20° C., topical and injected ALA): significantly suppress
- dermal porphyrin synthesis ([2]; skin surface temperature 20° C.): partially suppressed
- acne outcome after four weeks [3]: no new inflammatory acne
- porphyrin accumulation and subsequent PDT reactions [4]: suppressed
- porphyrin accumulation under blue light [5]: inhibition of porphyrin accumulation in all sites down to 17% light transmittance
- fluorescence of hair follicles and sebaceous glands relative to other sites (trend) ([6]; in vivo): stronger fluorescence compared with epidermis and eccrine glands
